Where two headings read alike, the source gives them in different places.
Target: Recombinant human cathepsin S (CatS) (Homo sapiens, UniProt P25774)
Assay: Recombinant human cathepsin S (CatS) inhibition assay, fluorogenic substrate Z-Valine-Valine-Arginine-AMC;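 note: Baculovirus-expressed CatS in pH 5.0 sodium acetate buffer with DTT and NaCl, fluorescence read each minute over 20 min, inhibition derived from rate slope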

Sequence of Recombinant human cathepsin S (CatS) (P25774 115-331): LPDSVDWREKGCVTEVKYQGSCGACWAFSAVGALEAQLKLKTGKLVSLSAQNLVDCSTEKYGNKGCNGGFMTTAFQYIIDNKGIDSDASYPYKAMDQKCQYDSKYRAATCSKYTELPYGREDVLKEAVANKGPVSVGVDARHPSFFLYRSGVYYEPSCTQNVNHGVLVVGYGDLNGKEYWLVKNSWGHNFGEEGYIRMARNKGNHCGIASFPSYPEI

| Compound | IC50 [nM] | IC50 (CatS IC50) [nM] |
| --- | --- | --- |
| CC(=O)NC1CCN(CCCn2nc(-c3ccc(Cl)c(C#Cc4ccc(CNCc5ccc(Cl)cc5)cc4)c3)c3c2CCNC3)CC1 [Example 369, N-(1-{3-[3-(4-Chloro-3-{[4-({[(4-chlorophenyl)methyl]amino}methyl)phenyl]ethynyl}phenyl)-4,5,6,7-tetrahydro-1H-pyrazolo[4,3-c]pyridin-1-yl]propyl}piperidin-4-yl)acetamide] | 410 | – |
| CC(C)(C)OC(=O)N1CCc2ccc(C#Cc3cc(-c4nn(CCCN5CCOCC5)c5c4CN(S(C)(=O)=O)CC5)ccc3Cl)cc2C1 [Example 370, 1,1-Dimethylethyl 7-({2-chloro-5-[5-(methylsulfonyl)-1-(3-morpholin-4-ylpropyl)-4,5,6,7-tetrahydro-1H-pyrazolo[4,3-c]pyridin-3-yl]phenyl}ethynyl)-3,4-dihydroisoquinoline-2(1H)-carboxylate] | 720 | – |
| CC(C)(C)OC(=O)N1CCc2ccc(C#Cc3cc(-c4nn(CC(O)CN5CCCCC5)c5c4CN(S(C)(=O)=O)CC5)ccc3Cl)cc2C1 (stereo not drawn) [Example 371, 1,1-Dimethylethyl 7-({2-chloro-5-[1-(2-hydroxy-3-piperidin-1-ylpropyl)-5-(methylsulfonyl)-4,5,6,7-tetrahydro-1H-pyrazolo[4,3-c]pyridin-3-yl]phenyl}ethynyl)-3,4-dihydroisoquinoline-2(1H)-carboxylate] | 380 | – |
| CC(C)(C)C1CCN(CCCn2nc(-c3ccc(Cl)c(C#Cc4ccc(CNCc5ccc(Cl)cc5)cc4)c3)c3c2CCN(S(C)(=O)=O)C3)CC1 [Example 372, 1-[4-({2-Chloro-5-[1-{3-[4-(1,1-dimethylethyl)piperidin-1-yl]propyl}-5-(methylsulfonyl)-4,5,6,7-tetrahydro-1H-pyrazolo[4,3-c]pyridin-3-yl]phenyl}ethynyl)phenyl]-N-[(4-chlorophenyl)methyl]methanamine] | – | 60 |
| CC(C)(C)OC(=O)N1CCc2ccc(C#Cc3cc(-c4nn(CC(O)CN5CCC(C(N)=O)CC5)c5c4CN(S(C)(=O)=O)CC5)ccc3Cl)cc2C1 (stereo not drawn) [Example 373, 1,1-Dimethylethyl 7-({5-[1-{3-[4-(aminocarbonyl)piperidin-1-yl]-2-hydroxypropyl}-5-(methylsulfonyl)-4,5,6,7-tetrahydro-1H-pyrazolo[4,3-c]pyridin-3-yl]-2-chlorophenyl}ethynyl)-3,4-dihydroisoquinoline-2(1H)-carboxylate] | 170 | – |
| CC(C)(C)OC(=O)N1CCc2ccc(C#Cc3cc(-c4nn(CCCN5CCC(C(N)=O)CC5)c5c4CN(S(C)(=O)=O)CC5)ccc3Cl)cc2C1 [Example 374, 1,1-Dimethylethyl 7-({5-[1-{3-[4-(aminocarbonyl)piperidin-1-yl]propyl}-5-(methylsulfonyl)-4,5,6,7-tetrahydro-1H-pyrazolo[4,3-c]pyridin-3-yl]-2-chlorophenyl}ethynyl)-3,4-dihydroisoquinoline-2(1H)-carboxylate] | – | 160 |
| CS(=O)(=O)N1CCc2c(c(-c3ccc(Cl)c(C#Cc4ccc5c(c4)CCNCC5)c3)nn2CCCN2CCOCC2)C1 [Example 375, 7-({2-Chloro-5-[5-(methylsulfonyl)-1-(3-morpholin-4-ylpropyl)-4,5,6,7-tetrahydro-1H-pyrazolo[4,3-c]pyridin-3-yl]phenyl}ethynyl)-2,3,4,5-tetrahydro-1H-3-benzazepine] | – | 410 |
| CC(C)(C)OC(=O)NCc1cccc(C#Cc2cc(-c3nn(CCCN4CCOCC4)c4c3CN(S(C)(=O)=O)CC4)ccc2Cl)c1 [Example 376, 1,1-Dimethylethyl {[3-({2-chloro-5-[5-(methylsulfonyl)-1-(3-morpholin-4-ylpropyl)-4,5,6,7-tetrahydro-1H-pyrazolo[4,3-c]pyridin-3-yl]phenyl}ethynyl)phenyl]methyl}carbamate] | 1010 | – |
| CS(=O)(=O)N1CCc2c(c(-c3ccc(Cl)c(C#Cc4cccc(CN)c4)c3)nn2CCCN2CCOCC2)C1 [Example 377, 1-[3-({2-Chloro-5-[5-(methylsulfonyl)-1-(3-morpholin-4-ylpropyl)-4,5,6,7-tetrahydro-1H-pyrazolo[4,3-c]pyridin-3-yl]phenyl}ethynyl)phenyl]methanamine] | – | 470 |

From US20080200454A1, “CARBON-LINKED TETRAHYDRO-PYRAZOLO-PYRIDINE MODULATORS OF CATHEPSIN S” (priority 2007, published 2008)
